Results from patent publication US8278304B2, “Substituted 4-hydroxypyrimidine-5-carboxamides” (Merck Sharp & Dohme Corp., priority 2008, dated 2012).

Target: T1, PHD2 (Homo sapiens, UniProt Q9GZT9)
T1 construct: FLAG-tagged full length PHD2 expressed in and purified from baculovirus-infected Sf9 cells; FLAG; made in house; host or cells: baculovirus-infected Sf9 cells
Test: PHD2 / HIF-1α peptide hydroxylation assay, time resolved fluorescence (VHL complex detection)
Type: biochemical
Conditions: FLAG-tagged full length PHD2; 0.2 μM 2-oxoglutarate, 0.5 μM HIF-1α peptide; read-out: PHD2 Activity (PHD2 binding activity expressed as IC50 (nM))
How it was run: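 Sf9-expressed FLAG-tagged full-length PHD2 (0.15 μg/ml) preincubated with compound 30 min at room temperature in Tris pH 7.4 buffer with 10 μM ferrous sulfate, 1 mM ascorbate and catalase. Reaction started with 0.2 μM 2-oxoglutarate and 0.5 μM biotinylated HIF-1α peptide (final); hydroxylation detected by time-resolved fluorescence via VHL complex binding.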

T1 sequence (Q9GZT9 whole entry): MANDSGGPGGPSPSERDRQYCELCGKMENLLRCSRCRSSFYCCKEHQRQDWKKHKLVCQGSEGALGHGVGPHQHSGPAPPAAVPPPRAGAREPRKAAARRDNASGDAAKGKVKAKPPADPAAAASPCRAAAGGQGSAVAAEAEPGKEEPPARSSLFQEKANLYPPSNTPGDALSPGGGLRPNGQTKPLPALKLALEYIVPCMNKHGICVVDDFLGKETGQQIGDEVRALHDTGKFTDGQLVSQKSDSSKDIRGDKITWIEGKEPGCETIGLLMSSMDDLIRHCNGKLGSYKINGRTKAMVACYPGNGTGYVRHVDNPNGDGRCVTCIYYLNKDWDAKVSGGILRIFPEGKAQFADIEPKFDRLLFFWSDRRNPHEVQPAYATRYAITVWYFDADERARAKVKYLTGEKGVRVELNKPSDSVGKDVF

Row | Compound | IC50
1 | CC(C)(O)[C@H](NC(=O)c1cnc(-n2cccn2)nc1O)c1ccccc1 [Example 128, 4-hydroxy-N-[(1R)-2-hydroxy-2-methyl-1-phenylpropyl]-2-(1H-pyrazol-1-yl)pyrimidine-5-carboxamide] | ≤ 10 nM
2 | CC[C@H](NC(=O)c1cnc(-c2nc(C)cs2)nc1O)c1ccccc1 [Example 41, 4-Hydroxy-2-(4-methyl-1,3-thiazol-2-yl)-N-[(1S)-1-phenylpropyl]pyrimidine-5-carboxamide] | 100 to 1000 nM
